Measurements reported in patent publication US7414023B2, “Peptide ligands for prostate specific antigen” (Licentia Ltd., priority 2000, dated 2008).
Bridge positions count the residues as written; N and C are the ends. Peptide text beside a SMILES is read from it.

How the values were obtained:
PSA [1] = target: T1, PSA (Homo sapiens, UniProt P07288); assay: Surface plasmon resonance, GST-peptides on PSA captured by MAb H117; assay type: binding; set-up: PSA was purified from human seminal fluid as described previously (3); from tissue; host or cells: human seminal fluid
Procedure: The binding kinetics of selected peptides to PSA was studied by surface plasmon resonance (29) on a BIAcore 2000™ instrument (Biacore AB, Uppsala, Sweden). PSA was captured to the solid phase by MAb H117 which binds to the same epitope as MAb 5E4 (30). The capture antibody was covalently coupled onto the surface of the CM5 sensor chip according to the manufacturer's instructions, using coupling levels of 5000 resonance units (RU). PSA was captured by injection of 416 nM of PSA in PBS, 4-min contact time (5 μl/min) and 60 min wash (20 μl/min) providing ligand levels in the range 500-600 RUs. Each analyte (GST-peptide), at various concentrations, was injected for 1 min at 20 μl/min flow rate. […] PSA-binding to either chemically activated/deactivated blank surface or MAb H117 alone was subtracted as a non-specific interaction. Regeneration after each measurement cycle was done with 3×0.5 min injections of 10 mM HCl. Binding data were analyzed using the BIAEVALUATION software.
The association rate constat (ka), dissociation rate constant (kd) and equilibrium dissociation constant (KD) for GST-peptides to PSA were measured by surface plasmon resonance. […]
The binding kinetics and affinity of the peptides to PSA was estimated by surface plasmon resonance. Increasing concentrations of GST-peptides were injected over PSA captured by MAb H117. Background-corrected sensorgrams were fitted to single-site interaction between GST-peptide and PSA using three different GST-peptide concentrations and the rate equation: d(GST-peptide:PSA)/dt=ka(GST-peptide)×(PSA)−kd(GST-peptide:PSA).

PSA [2] = target: T1, PSA; assay: Enzyme activity of PSA with chromogenic substrate S-2586; assay type: biochemical; set-up: PSA was purified from human seminal fluid as described previously (3); from tissue; host or cells: human seminal fluid; conditions: GST-peptides, S-2586; for minimum peptide concentration affecting the activity: PSA enzyme activity
Procedure: The enzyme activity of PSA was studied in the presence of peptides alone or together with Zn^2+ by using the chymotrypsin substrate S-2586 (MeO-Suc-Arg-Pro-Tyr-pNA) (Chromogenix, Mölndal, Sweden). […] PSA (333 nM) was incubated with a 1-100-fold molar excess of GST-peptide or 100-fold excess of synthetic peptide in TBS buffer, pH 7.8 containing 0.5 g/L BSA for 1 h at 22° C. The effect of Zn^2+ on the enzyme activity of PSA was studied by including 1-200 μM of ZnCl2 in the reaction buffer. The combined effect of peptides and Zn2+ on the enzyme activity of PSA was studied by incubating PSA (333 nM) with peptide (333 nM) in the buffer containing 1-200 μM Zn^2+ for 1 h. After addition of substrate to a final concentration 0.2 mM, the absorbance was monitored at 5-min intervals for 2 h at 405 nm on a Labsystems Multiskan MCC/340 photometer (Labsystems, Helsinki, Finland). As a control, the effect of wild type GST on the enzyme activity of PSA was tested.
In the experiments, PSA (0.33 μM) was incubated with increasing concentrations of GST-C-4 (0-100-fold molar excess) for 1 h, after which the chromogenic substrate S-2586 was added and enzyme activity was monitored by measuring the absorbance at 405 nm. Data represent mean values from duplicate wells ±SE.
PSA (0.33 μM) was incubated with chemically synthesized peptides (100-fold molar excess) for 1 h, after which the chromogenic substrate S-2586 was added and enzyme activity was monitored by measuring the absorbance at 405 nm.
Because zinc is known to inhibit the enzyme activity of PSA, we further characterized the effect of GST-peptides on the enzyme activity of PSA by assessing the combined effect of peptides and Zn^2+. […] The effect of GST-C-4 and Zn^2+ on enzyme activity was determined by incubating PSA (0.33 μM) with the same molar concentration of GST-C-4 and various concentrations of Zn^2+. The reaction was monitored by measuring absorbance at 405 nm after addition of the chromogenic substrate S-2586. […] Data represent mean values from duplicate wells ±SE.
(§1) Data represent mean values from duplicate wells ±SE.
As control the enzyme activity of PSA alone was measured.
as §1
20 μg of the peptide was iodinated by the Iodogen method. After iodination the peptide was purified by using C18 Sep-Pak column.

[3] = average at 3 analyte concentrations
[4] = zinc 0 μM, average of 3 fits, analyte 3.4-8.5 μM
[5] = zinc 1 μM, single fit, 3.4 μM peptide
[6] = zinc 10 μM, single fit, 3.4 μM peptide
[7] = zinc 30 μM, single fit, 3.4 μM peptide

T1 sequence (P07288 25-261): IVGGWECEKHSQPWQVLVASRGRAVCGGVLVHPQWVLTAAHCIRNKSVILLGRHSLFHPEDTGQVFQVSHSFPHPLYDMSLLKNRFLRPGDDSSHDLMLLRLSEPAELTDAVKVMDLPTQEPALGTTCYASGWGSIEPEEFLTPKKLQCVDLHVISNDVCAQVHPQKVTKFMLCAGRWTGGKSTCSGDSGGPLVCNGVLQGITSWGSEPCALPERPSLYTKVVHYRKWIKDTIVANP

Compound | ka × 10^3 (1/Ms) (PSA [1]; [3]) | kd × 10^−3 (1/s) (PSA [1]; [3]) | Kd (PSA [1]; [4]) | ka × 10^3 (1/Ms) (PSA [1]; [4]) | kd × 10^−3 (1/s) (PSA [1]; [4]) | increase (fold) of affinity (PSA [1]; zinc 1 μM versus 0 μM) | ka × 10^3 (1/Ms) (PSA [1]; [5]) | kd × 10^−3 (1/s) (PSA [1]; [5]) | increase (fold) of affinity (PSA [1]; zinc 10 μM versus 0 μM) | ka × 10^3 (1/Ms) (PSA [1]; [6]) | kd × 10^−3 (1/s) (PSA [1]; [6]) | increase (fold) of affinity (PSA [1]; zinc 30 μM versus 0 μM) | Kd (PSA [1]; [7]) | ka × 10^3 (1/Ms) (PSA [1]; [7]) | kd × 10^−3 (1/s) (PSA [1]; [7]) | EC50 (PSA [2]; PSA 0.33 μM, read-out: 50% stimulation (μM): peptide concentration required for half maximal stimulation of the enzyme activity of PSA) | minimum peptide concentration affecting the activity (PSA [2])
CVFTSDYAFC [Peptide A-1] | 10.3 × 10^3 1/Ms | 80 × 10^−3 1/s | 7800 nM | 10.3 × 10^3 1/Ms | 80 × 10^−3 1/s | 3 fold | 1.8 × 10^3 1/Ms | 4.7 × 10^−3 1/s | 5.9 fold | 1.2 × 10^3 1/Ms | 1.6 × 10^−3 1/s | 7.7 fold | 1000 nM | 1.9 × 10^3 1/Ms | 2.0 × 10^−3 1/s | 2.2 µM | 300 nM
CC(C)C[C@@H]1NC(=O)[C@H](Cc2ccc(O)cc2)NC(=O)[C@H](CC(=O)O)NC(=O)[C@H](Cc2ccc(O)cc2)NC(=O)[C@H](CC(N)=O)NC(=O)[C@H](Cc2c[nH]cn2)NC(=O)[C@H](C)NC(=O)[C@H](Cc2ccccc2)NC(=O)[C@H](C(C)C)NC(=O)[C@@H](N)CSSC[C@@H](C(=O)O)NC(=O)[C@H](C(C)C)NC1=O [Peptide B-2] (H-CVFAHNYDYLVC-OH; disulfide 1-12; N-terminus assumed) |  | 57 × 10^−3 1/s |  |  | 57 × 10^−3 1/s |  |  | 3.5 × 10^−3 1/s | 6 fold |  | 1.6 × 10^−3 1/s | 4.7 fold |  |  | 0.6 × 10^−3 1/s |  | 300 nM
